Measurements from patent publication US20260256792A1, “TREATMENT OF CHRONIC SPONTANEOUS URTICARIA BY ADMINISTERING (R)-2-[3-[4-AMINO-3-(2-FLUORO-4-PHENOXY-PHENYL)PYRAZOLO[3,4-D]PYRIMIDIN-1-YL]PIPERIDINE-1-CARBONYL]-4-METHYL-4-[4-(OXETAN-3-YL)PIPERAZIN-1-YL]PENT-2-ENENITRILE” (priority 2023, published 2026).

Tested on: moderate-to-severe chronic spontaneous urticaria (CSU)
Assay: Phase 2 CSU study: itch severity score over 7 days (ISS7)
Assay type: in vivo, human
Settings: for Change from Baseline in ISS7 at Week 12, LS Mean / Change from Baseline in ISS7 at Week 12, LS Mean Diff vs. placebo / Change from Baseline in ISS7 at Week 12, Mean: Omalizumab-naïve population; for ISS7 change from baseline at Week 12, LS Mean / ISS7 change from baseline at Week 12, LS Mean Diff vs. placebo: ANCOVA
Source text: The study comprises a 12 week, randomized, double-blind, placebo-controlled, multi-center, dose-ranging efficacy and safety phase, followed by a 40 week open label extension (OLE) phase (see FIG. 1). The study consists of three phases and an optional OLE phase. […] Clinically, CSU is characterized by the spontaneous and recurrent appearance of pruritic hives. The proposed primary endpoints were the UAS7 at Week 12 in EU and EU reference countries and the ISS7 in the US. Regardless of where a participant was from, all assessments were the same. The UAS7 score is a composite score containing both the HSS7 and the ISS7. This allowed a global assessment of the two key components of urticaria: hives and itch. […] The UAS is a validated PRO measure. […] The daily UAS scores range from 0 to 6 point/day. […] Patients were to complete the UAS using the e-diary. […] The following secondary endpoints were to be analyzed using the same approach as for the primary endpoint: • Change from baseline in UAS7 at Week 4 • Change from baseline in UAS7 at Week 12 (for US and US reference countries) • Change from baseline in ISS7 at Week 12 (except US and US reference countries) • Change from baseline in HSS7 at Week 12

[1] = 400 mg QPM, Duration of disease (years) <2
[2] = 400 mg QPM, Duration of disease (years) >10
[3] = 400 mg QPM, Ethnicity Non-Hispanic
[4] = 400 mg QPM, History of angioedema No
[5] = 400 mg QPM, History of angioedema Yes
[6] = 400 mg QPM, Race All the Others
[7] = 400 mg QPM, Region Eastern Europe
[8] = 400 mg QPM, Region Latin America
[9] = 400 mg QPM, Region Western Countries
[10] = 400 mg QPM, omalizumab-naïve population
[11] = 400 mg QPM, omalizumab-naïve population with outlier removed
[12] = 400 mg TID, Age group (years) <44 (Median)
[13] = 400 mg TID, Age group (years) <65
[14] = 400 mg TID, Age group (years) ≥44 (Median)
[15] = 400 mg TID, Baseline BHRA BHRA+
[16] = 400 mg TID, Baseline BHRA BHRA−
[17] = 400 mg TID, Baseline Eosinophils (10^9/L) <0.150
[18] = 400 mg TID, Baseline Eosinophils (10^9/L) <0.165 (Median)
[19] = 400 mg TID, Baseline Eosinophils (10^9/L) <0.3
[20] = 400 mg TID, Baseline Eosinophils (10^9/L) ≥0.150
[21] = 400 mg TID, Baseline Eosinophils (10^9/L) ≥0.165 (Median)
[22] = 400 mg TID, Baseline Eosinophils (10^9/L) ≥0.3
[23] = 400 mg TID, Baseline H1-antihistamines dose 1-fold
[24] = 400 mg TID, Baseline H1-antihistamines dose 2 to 4-fold standard dose

CC(C)(C=C(C#N)C(=O)N1CCC[C@@H](n2nc(-c3ccc(Oc4ccccc4)cc3F)c3c(N)ncnc32)C1)N1CCN(C2COC2)CC1 [rilzabrutinib, (R)-2-[3-[4-amino-3-(2-fluoro-4-phenoxy-phenyl)pyrazolo[3,4-d]pyrimidin-1-yl]piperidine-1-carbonyl]-4-methyl-4-[4-(oxetan-3-yl)piperazin-1-yl]pent-2-enenitrile]
Change from Baseline in ISS7 at Week 12, LS Mean [1]: −4.83
Change from Baseline in ISS7 at Week 12, LS Mean Diff vs. placebo [1]: −1.18
Change from Baseline in ISS7 at Week 12, Mean [1]: −5.46
Change from Baseline in ISS7 at Week 12, LS Mean [2]: −0.20
Change from Baseline in ISS7 at Week 12, LS Mean Diff vs. placebo [2]: 3.49
Change from Baseline in ISS7 at Week 12, Mean [2]: −3.29
Change from Baseline in ISS7 at Week 12, LS Mean (400 mg QPM, Ethnicity Hispanic): −4.19
Change from Baseline in ISS7 at Week 12, LS Mean Diff vs. placebo (400 mg QPM, Ethnicity Hispanic): 2.82
Change from Baseline in ISS7 at Week 12, Mean (400 mg QPM, Ethnicity Hispanic): −5.04
Change from Baseline in ISS7 at Week 12, LS Mean [3]: −5.29
Change from Baseline in ISS7 at Week 12, LS Mean Diff vs. placebo [3]: −0.82
Change from Baseline in ISS7 at Week 12, Mean [3]: −6.12
Change from Baseline in ISS7 at Week 12, Mean (400 mg QPM, Gender Female): −5.86
Change from Baseline in ISS7 at Week 12, Mean (400 mg QPM, Gender Male): −5.20
Change from Baseline in ISS7 at Week 12, LS Mean [4]: −4.56
Change from Baseline in ISS7 at Week 12, LS Mean Diff vs. placebo [4]: 0.78
Change from Baseline in ISS7 at Week 12, Mean [4]: −5.32
Change from Baseline in ISS7 at Week 12, LS Mean [5]: −5.00
Change from Baseline in ISS7 at Week 12, LS Mean Diff vs. placebo [5]: 0.25
Change from Baseline in ISS7 at Week 12, Mean [5]: −6.31
ISS7 at Week 12, Mean (400 mg QPM, ITT population): 11.37
ISS7 at Week 12, Median (400 mg QPM, ITT population): 11.20
ISS7 change from baseline at Week 12, Mean (400 mg QPM, ITT population): −5.95
ISS7 change from baseline at Week 12, Median (400 mg QPM, ITT population): −5.67
ISS7 change from baseline at Week 12, LS Mean (400 mg QPM, ITT population): −5.46 points
ISS7 change from baseline at Week 12, LS Mean Diff vs. placebo (400 mg QPM, ITT population): 0.85
Change from Baseline in ISS7 at Week 12, LS Mean [6]: −4.94
Change from Baseline in ISS7 at Week 12, LS Mean Diff vs. placebo [6]: −1.48
Change from Baseline in ISS7 at Week 12, Mean [6]: −5.66
Change from Baseline in ISS7 at Week 12, LS Mean (400 mg QPM, Race White): −4.41
Change from Baseline in ISS7 at Week 12, LS Mean Diff vs. placebo (400 mg QPM, Race White): 1.60
Change from Baseline in ISS7 at Week 12, Mean (400 mg QPM, Race White): −5.70
Change from Baseline in ISS7 at Week 12, LS Mean (400 mg QPM, Region Asia): −5.17
Change from Baseline in ISS7 at Week 12, LS Mean Diff vs. placebo (400 mg QPM, Region Asia): −1.72
Change from Baseline in ISS7 at Week 12, Mean (400 mg QPM, Region Asia): −5.66
Change from Baseline in ISS7 at Week 12, LS Mean [7]: −4.74
Change from Baseline in ISS7 at Week 12, LS Mean Diff vs. placebo [7]: 7.93
Change from Baseline in ISS7 at Week 12, Mean [7]: −5.54
Change from Baseline in ISS7 at Week 12, LS Mean [8]: −5.19
Change from Baseline in ISS7 at Week 12, LS Mean Diff vs. placebo [8]: 1.40
Change from Baseline in ISS7 at Week 12, Mean [8]: −6.51
Change from Baseline in ISS7 at Week 12, LS Mean [9]: −3.02
Change from Baseline in ISS7 at Week 12, LS Mean Diff vs. placebo [9]: 1.53
Change from Baseline in ISS7 at Week 12, Mean [9]: −4.61
ISS7 at Week 12, Median [10]: 11.60
ISS7 change from baseline at Week 12, Mean [10]: −5.69
ISS7 change from baseline at Week 12, Median [10]: −5.33
ISS7 at Week 12, Median [11]: 11.60
ISS7 change from baseline at Week 12, Mean [11]: −5.69
ISS7 change from baseline at Week 12, Median [11]: −5.33
ISS7 change from baseline at Week 12, LS Mean [11]: −5.29 points
ISS7 change from baseline at Week 12, LS Mean Diff vs. placebo [11]: 0.42
ISS7 change from baseline at Week 12, LS Mean [10]: −5.19 points
ISS7 change from baseline at Week 12, LS Mean Diff vs. placebo [10]: 0.58
patients with improvement in the weekly ISS7 (400 mg TID arm): all patients except one showed improvement
Change from Baseline in ISS7 at Week 12, LS Mean [12]: −9.04
Change from Baseline in ISS7 at Week 12, LS Mean Diff vs. placebo [12]: −4.56
Change from Baseline in ISS7 at Week 12, LS Mean [13]: −8.63
Change from Baseline in ISS7 at Week 12, LS Mean Diff vs. placebo [13]: −2.97
Change from Baseline in ISS7 at Week 12, Mean [13]: −9.73
Change from Baseline in ISS7 at Week 12, LS Mean [14]: −9.26
Change from Baseline in ISS7 at Week 12, LS Mean Diff vs. placebo [14]: −2.66
Change from Baseline in ISS7 at Week 12, Mean [14]: −10.16
Change from Baseline in ISS7 at Week 12, Mean (400 mg TID, Age group (years) ≥65): −13.50
Change from Baseline in ISS7 at Week 12, LS Mean [15]: −12.96
Change from Baseline in ISS7 at Week 12, LS Mean Diff vs. placebo [15]: −7.58
Change from Baseline in ISS7 at Week 12, Mean [15]: −12.42
Change from Baseline in ISS7 at Week 12, LS Mean [16]: −8.82
Change from Baseline in ISS7 at Week 12, Mean [16]: −9.91
Change from Baseline in ISS7 at Week 12, LS Mean Diff vs. placebo (400 mg TID, Baseline BMI (kg/m^2) ≥30): −3.19
Change from Baseline in ISS7 at Week 12, LS Mean [17]: −10.28
Change from Baseline in ISS7 at Week 12, LS Mean Diff vs. placebo [17]: −3.50
Change from Baseline in ISS7 at Week 12, LS Mean [18]: −10.22
Change from Baseline in ISS7 at Week 12, LS Mean Diff vs. placebo [18]: −3.71
Change from Baseline in ISS7 at Week 12, Mean [18]: −10.99
Change from Baseline in ISS7 at Week 12, LS Mean [19]: −9.46
Change from Baseline in ISS7 at Week 12, LS Mean Diff vs. placebo [19]: −3.99
Change from Baseline in ISS7 at Week 12, Mean [19]: −10.61
Change from Baseline in ISS7 at Week 12, LS Mean [20]: −8.30
Change from Baseline in ISS7 at Week 12, LS Mean Diff vs. placebo [20]: −4.31
Change from Baseline in ISS7 at Week 12, LS Mean [21]: −8.24
Change from Baseline in ISS7 at Week 12, LS Mean Diff vs. placebo [21]: −4.16
Change from Baseline in ISS7 at Week 12, Mean [21]: −9.55
Change from Baseline in ISS7 at Week 12, LS Mean [22]: −8.12
Change from Baseline in ISS7 at Week 12, LS Mean Diff vs. placebo [22]: −3.27
Change from Baseline in ISS7 at Week 12, Mean [22]: −8.68
Change from Baseline in ISS7 at Week 12, LS Mean [23]: −8.05
Change from Baseline in ISS7 at Week 12, LS Mean Diff vs. placebo [23]: −1.22
Change from Baseline in ISS7 at Week 12, Mean [23]: −8.88
Change from Baseline in ISS7 at Week 12, LS Mean [24]: −11.00
Change from Baseline in ISS7 at Week 12, LS Mean Diff vs. placebo [24]: −7.52
